US12662479B2 (Foghorn Therapeutics Inc., priority 2020, dated 2026)

Experiments:
[1] = molecular target: T1, HiBit-BRG1 fusion protein (Homo sapiens, UniProt P51532); assay: HiBiT-BRG1 cell-based degradation assay (Nano-Glo HiBiT Lytic Detection, 24 h); conditions: HeLa cells expressing HiBit-BRG1 and LgBit; for DC50: read-out: BRG1 HiBit Degradation IC50; for Dmax: HeLa, top dose 30 μM, read-out: BRG1 HiBit Degradation Maximum measured
T1 construct: expressed in transfected cells
How it was run: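 Degradation is scaled from DMSO-treated cells (0%) to cells given 2 μM of a known BRM/BRG1 degrader (100%). HeLa cells stably carrying HiBiT-BRG1 plus LgBiT (5000/well) were lysed with Nano-Glo HiBiT detection reagent, shaken 10 min at RT, and luminescence read.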

HiBit-BRM fusion protein = molecular target: T2, HiBit-BRM fusion protein (Homo sapiens, UniProt P51531); assay: HiBiT-BRM cell-based degradation assay (Nano-Glo HiBiT Lytic Detection, 24 h); conditions: HeLa cells expressing HiBiT-BRM; for DC50: read-out: BRM HiBit Degradation IC50; for BRM HiBit Degradation Maximum measured: top dose 30 μM
T2 construct: expressed in transfected cells
T2 sequence (P51531 whole entry, the tested form may be a part): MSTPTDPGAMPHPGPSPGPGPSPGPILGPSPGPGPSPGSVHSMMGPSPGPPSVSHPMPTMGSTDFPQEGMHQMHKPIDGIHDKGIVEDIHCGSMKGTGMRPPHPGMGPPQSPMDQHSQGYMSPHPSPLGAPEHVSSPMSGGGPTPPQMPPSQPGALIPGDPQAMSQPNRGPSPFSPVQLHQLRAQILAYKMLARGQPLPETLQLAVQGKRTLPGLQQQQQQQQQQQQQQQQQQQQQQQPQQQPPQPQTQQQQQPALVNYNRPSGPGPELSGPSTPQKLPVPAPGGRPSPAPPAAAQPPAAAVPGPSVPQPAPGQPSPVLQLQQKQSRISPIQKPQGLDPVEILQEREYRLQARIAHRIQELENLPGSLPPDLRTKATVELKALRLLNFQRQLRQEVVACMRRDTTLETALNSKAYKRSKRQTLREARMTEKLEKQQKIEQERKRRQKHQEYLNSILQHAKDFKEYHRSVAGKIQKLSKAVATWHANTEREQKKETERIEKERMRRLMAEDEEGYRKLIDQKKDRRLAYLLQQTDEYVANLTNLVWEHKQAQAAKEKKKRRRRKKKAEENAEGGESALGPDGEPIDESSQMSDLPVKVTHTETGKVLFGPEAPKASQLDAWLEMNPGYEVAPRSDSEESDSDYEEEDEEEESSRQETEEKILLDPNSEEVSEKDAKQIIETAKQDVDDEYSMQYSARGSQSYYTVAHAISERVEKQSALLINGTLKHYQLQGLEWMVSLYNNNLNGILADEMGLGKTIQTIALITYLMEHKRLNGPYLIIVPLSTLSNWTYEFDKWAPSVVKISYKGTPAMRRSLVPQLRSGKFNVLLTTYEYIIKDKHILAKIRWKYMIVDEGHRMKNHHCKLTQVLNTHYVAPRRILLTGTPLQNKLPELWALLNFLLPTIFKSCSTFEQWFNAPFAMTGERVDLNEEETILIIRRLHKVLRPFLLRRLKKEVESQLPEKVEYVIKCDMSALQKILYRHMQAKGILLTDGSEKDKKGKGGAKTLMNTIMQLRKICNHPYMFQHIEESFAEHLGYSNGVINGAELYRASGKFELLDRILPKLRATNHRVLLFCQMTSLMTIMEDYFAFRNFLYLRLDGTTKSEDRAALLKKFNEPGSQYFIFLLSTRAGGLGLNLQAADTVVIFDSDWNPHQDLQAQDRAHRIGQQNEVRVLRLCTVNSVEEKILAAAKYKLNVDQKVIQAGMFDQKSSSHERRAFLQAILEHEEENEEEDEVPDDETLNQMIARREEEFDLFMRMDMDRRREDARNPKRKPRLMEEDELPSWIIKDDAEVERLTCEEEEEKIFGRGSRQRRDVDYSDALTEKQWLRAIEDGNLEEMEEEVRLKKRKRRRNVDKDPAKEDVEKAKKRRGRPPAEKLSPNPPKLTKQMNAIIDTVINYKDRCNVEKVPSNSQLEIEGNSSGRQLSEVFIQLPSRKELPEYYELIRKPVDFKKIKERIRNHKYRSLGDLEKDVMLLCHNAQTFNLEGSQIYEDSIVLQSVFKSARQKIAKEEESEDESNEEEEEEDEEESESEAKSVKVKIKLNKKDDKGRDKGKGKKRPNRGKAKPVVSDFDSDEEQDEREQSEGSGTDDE
How it was run: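 Stable HiBiT-BRM HeLa line; 24 h compound exposure, top final 30 μM, 3-fold, 10 pts in duplicate. Lytic HiBiT/LgBiT luminescence readout. % degradation vs DMSO (0%) and 2 μM known BRM/BRG1 degrader (100%).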

T1 sequence (P51532 whole entry, the tested form may be a part): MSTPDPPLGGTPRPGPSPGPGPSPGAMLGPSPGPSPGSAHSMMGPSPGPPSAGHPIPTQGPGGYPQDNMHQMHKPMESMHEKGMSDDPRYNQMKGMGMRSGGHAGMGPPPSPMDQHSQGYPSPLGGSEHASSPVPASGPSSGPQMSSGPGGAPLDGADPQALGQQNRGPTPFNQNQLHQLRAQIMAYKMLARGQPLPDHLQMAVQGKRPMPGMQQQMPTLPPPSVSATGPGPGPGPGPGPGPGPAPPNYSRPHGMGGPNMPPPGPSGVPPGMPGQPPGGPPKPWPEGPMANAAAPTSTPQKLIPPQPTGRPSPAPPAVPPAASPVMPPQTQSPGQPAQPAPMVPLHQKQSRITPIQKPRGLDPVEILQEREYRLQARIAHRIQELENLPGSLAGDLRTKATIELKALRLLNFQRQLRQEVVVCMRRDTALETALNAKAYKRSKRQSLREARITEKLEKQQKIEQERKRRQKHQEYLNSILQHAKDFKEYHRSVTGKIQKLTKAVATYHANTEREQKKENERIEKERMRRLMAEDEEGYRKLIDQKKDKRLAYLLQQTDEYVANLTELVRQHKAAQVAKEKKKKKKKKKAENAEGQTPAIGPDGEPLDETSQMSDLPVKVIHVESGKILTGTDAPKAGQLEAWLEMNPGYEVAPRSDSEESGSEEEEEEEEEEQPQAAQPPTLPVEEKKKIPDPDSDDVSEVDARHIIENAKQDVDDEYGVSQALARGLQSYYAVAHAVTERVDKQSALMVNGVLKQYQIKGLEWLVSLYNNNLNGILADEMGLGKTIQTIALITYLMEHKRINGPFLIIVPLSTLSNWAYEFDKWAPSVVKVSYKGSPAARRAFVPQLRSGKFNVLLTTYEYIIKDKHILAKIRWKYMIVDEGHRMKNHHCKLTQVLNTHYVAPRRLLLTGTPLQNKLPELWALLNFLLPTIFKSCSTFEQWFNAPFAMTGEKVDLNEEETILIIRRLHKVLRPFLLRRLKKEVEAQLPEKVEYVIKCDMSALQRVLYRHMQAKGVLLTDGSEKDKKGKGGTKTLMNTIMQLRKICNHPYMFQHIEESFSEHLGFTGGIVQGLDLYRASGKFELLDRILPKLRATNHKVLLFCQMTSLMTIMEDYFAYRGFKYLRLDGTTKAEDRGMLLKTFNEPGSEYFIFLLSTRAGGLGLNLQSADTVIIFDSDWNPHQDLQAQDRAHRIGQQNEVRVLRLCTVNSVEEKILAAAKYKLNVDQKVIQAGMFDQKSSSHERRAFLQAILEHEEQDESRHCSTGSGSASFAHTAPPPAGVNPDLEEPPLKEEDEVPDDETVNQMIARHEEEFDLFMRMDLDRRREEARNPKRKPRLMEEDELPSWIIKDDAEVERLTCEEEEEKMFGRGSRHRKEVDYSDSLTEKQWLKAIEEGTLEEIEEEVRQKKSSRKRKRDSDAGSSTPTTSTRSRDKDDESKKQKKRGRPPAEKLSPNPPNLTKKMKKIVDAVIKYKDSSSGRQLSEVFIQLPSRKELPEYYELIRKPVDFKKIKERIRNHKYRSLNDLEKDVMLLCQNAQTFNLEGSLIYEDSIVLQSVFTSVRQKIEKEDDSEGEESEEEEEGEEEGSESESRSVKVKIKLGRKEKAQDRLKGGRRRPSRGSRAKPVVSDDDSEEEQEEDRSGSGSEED

Structure (SMILES) | DC50 [1] [µM] | Dmax [1] [%] | DC50 (HiBit-BRM fusion protein) [µM] | BRM HiBit Degradation Maximum measured (HiBit-BRM fusion protein)
Cc1ncsc1-c1ccc(CNC(=O)[C@@H]2C[C@@H](O)CN2C(=O)[C@@H](NC(=O)CCCCCCCCC(=O)NCCOc2cc(-c3cccc(-c4csc(NC(=O)CNC(=O)c5ccn(S(C)(=O)=O)c5)n4)c3)ccn2)C(C)(C)C)cc1 [Compound 69, N1-((S)-1-((2S,4R)-4-hydroxy-2-((4-(4-methylthiazol-5-yl)benzyl)carbamoyl)pyrrolidin-1-yl)-3,3-dimethyl-1-oxobutan-2-yl)-N10-(2-((4-(3-(2-(2-(1-(methylsulfonyl)-1H-pyrrole-3-carboxamido)acetamido)thiazol-4-yl)phenyl)pyridin-2-yl)oxy)ethyl)decanediamide] | 0.1 to 1 | > 75 | < 0.1 | A (‘A’ = Maximum degradation >75%)
Cc1ncsc1-c1ccc(CNC(=O)[C@@H]2C[C@@H](O)CN2C(=O)[C@@H](NC(=O)COCCOCC(=O)NCCOc2cc(-c3cccc(-c4csc(NC(=O)CNC(=O)c5ccn(S(C)(=O)=O)c5)n4)c3)ccn2)C(C)(C)C)cc1 [Compound 71, N-(2-((4-(3-(2-(((S)-13-((2S,4R)-4-hydroxy-2-((4-(4-methylthiazol-5-yl)benzyl)carbamoyl)pyrrolidine-1-carbonyl)-14,14-dimethyl-4,11-dioxo-6,9-dioxa-3,12-diazapentadecyl)oxy)pyridin-4-yl)phenyl)thiazol-2-yl)amino)-2-oxoethyl)-1-(methylsulfonyl)-1H-pyrrole-3-carboxamide] | > 10 | < 50 | > 10 | C (‘C’ = Maximum degradation <50%)
Cc1ncsc1-c1ccc(CNC(=O)[C@@H]2C[C@@H](O)CN2C(=O)[C@@H](NC(=O)COCC(=O)N2CCN(c3cc(-c4cccc(-c5csc(NC(=O)CNC(=O)c6ccn(S(C)(=O)=O)c6)n5)c4)ccn3)CC2)C(C)(C)C)cc1 [Compound 72, N-[2-[[4-[3-[2-[4-[2-[2-[[(1S)-1-[(2S,4R)-4-hydroxy-2-[[4-(4-methylthiazol-5-yl)phenyl]methylcarbamoyl]pyrrolidine-1-carbonyl]-2,2-dimethyl-propyl]amino]-2-oxo-ethoxy]acetyl]piperazin-1-yl]-4-pyridyl]phenyl]thiazol-2-yl]amino]-2-oxo-ethyl]-1-methylsulfonyl-pyrrole-3-carboxamide] | > 10 | < 50 | > 10 | C (‘C’ = Maximum degradation <50%)
CS(=O)(=O)n1ccc(C(=O)NCC(=O)Nc2nc(-c3cccc(-c4ccnc(N5CCN(C(=O)CCOCCOCCOc6ccc7c(c6)C(=O)N(C6CCC(=O)NC6=O)C7=O)CC5)c4)c3)cs2)c1 (stereo not drawn) [Compound 73, N-[2-[[4-[3-[2-[4-[3-[2-[2-[2-(2,6-dioxo-3-piperidyl)-1,3-dioxo-isoindolin-5-yl]oxyethoxy]ethoxy]propanoyl]piperazin-1-yl]-4-pyridyl]phenyl]thiazol-2-yl]amino]-2-oxo-ethyl]-1-methylsulfonyl-pyrrole-3-carboxamide] | 0.1 to 1 | > 75 | 0.1 to 1 | A (‘A’ = Maximum degradation >75%)
Cc1ncsc1-c1ccc(CNC(=O)[C@@H]2C[C@@H](O)CN2C(=O)[C@@H](NC(=O)CCC(=O)N2CCN(c3cc(-c4cccc(-c5csc(NC(=O)CNC(=O)c6ccn(S(C)(=O)=O)c6)n5)c4)ccn3)CC2)C(C)(C)C)cc1 [Compound 74, N-[2-[[4-[3-[2-[4-[4-[[(1S)-1-[(2S,4R)-4-hydroxy-2-[[4-(4-methylthiazol-5-yl)phenyl]methylcarbamoyl]pyrrolidine-1-carbonyl]-2,2-dimethyl-propyl]amino]-4-oxo-butanoyl]piperazin-1-yl]-4-pyridyl]phenyl]thiazol-2-yl]amino]-2-oxo-ethyl]-1-methylsulfonyl-pyrrole-3-carboxamide] | > 10 | < 50 | > 10 | C (‘C’ = Maximum degradation <50%)
Cc1ncsc1-c1ccc(CNC(=O)[C@@H]2C[C@@H](O)CN2C(=O)[C@@H](NC(=O)COCCOCC(=O)N2CCN(c3cc(-c4cccc(-c5csc(NC(=O)CNC(=O)c6ccn(S(C)(=O)=O)c6)n5)c4)ccn3)CC2)C(C)(C)C)cc1 [Compound 75, N-(2-((4-(3-(2-(4-(2-(2-(2-(((S)-1-((2S,4R)-4-hydroxy-2-((4-(4-methylthiazol-5-yl)benzyl)carbamoyl)pyrrolidin-1-yl)-3,3-dimethyl-1-oxobutan-2-yl)amino)-2-oxoethoxy)ethoxy)acetyl)piperazin-1-yl)pyridin-4-yl)phenyl)thiazol-2-yl)amino)-2-oxoethyl)-1-(methylsulfonyl)-1H-pyrrole-3-carboxamide] | 0.1 to 1 | > 75 | 0.1 to 1 | B (‘B’ = Maximum degradation ≥50% and ≤75%)

Second part, the compound after the results:

DC50 [1] [µM] | Dmax [1] [%] | DC50 (HiBit-BRM fusion protein) [µM] | BRM HiBit Degradation Maximum measured (HiBit-BRM fusion protein) | Structure (SMILES)
> 10 | < 50 | > 10 | C (‘C’ = Maximum degradation <50%) | Cc1ncsc1-c1ccc(CNC(=O)[C@@H]2C[C@@H](O)CN2C(=O)[C@@H](NC(=O)CCC(=O)NCCOc2cc(-c3cccc(-c4csc(NC(=O)CNC(=O)c5ccn(S(C)(=O)=O)c5)n4)c3)ccn2)C(C)(C)C)cc1 [Compound 76, N′-[(1S)-1-[(2S,4R)-4-hydroxy-2-[[4-(4-methylthiazol-5-yl)phenyl]methylcarbamoyl]pyrrolidine-1-carbonyl]-2,2-dimethyl-propyl]-N-[2-[[4-[3-[2-[[2-[(1-methylsulfonylpyrrole-3-carbonyl)amino]acetyl]amino]thiazol-4-yl]phenyl]-2-pyridyl]oxy]ethyl]butanediamide]
> 10 | < 50 | > 10 | C (‘C’ = Maximum degradation <50%) | Cc1ncsc1-c1ccc(CNC(=O)[C@@H]2C[C@@H](O)CN2C(=O)[C@@H](NC(=O)CCCC(=O)NCCOc2cc(-c3cccc(-c4csc(NC(=O)CNC(=O)c5ccn(S(C)(=O)=O)c5)n4)c3)ccn2)C(C)(C)C)cc1 [Compound 77, N1-((S)-1-((2S,4R)-4-hydroxy-2-((4-(4-methylthiazol-5-yl)benzyl)carbamoyl)pyrrolidin-1-yl)-3,3-dimethyl-1-oxobutan-2-yl)-N5-(2-((4-(3-(2-(2-(1-(methylsulfonyl)-1H-pyrrole-3-carboxamido)acetamido)thiazol-4-yl)phenyl)pyridin-2-yl)oxy)ethyl)glutaramide]
> 10 | < 50 | > 10 | C (‘C’ = Maximum degradation <50%) | Cc1ncsc1-c1ccc(CNC(=O)[C@@H]2C[C@@H](O)CN2C(=O)[C@@H](NC(=O)COCC(=O)NCCOc2cc(-c3cccc(-c4csc(NC(=O)CNC(=O)c5ccn(S(C)(=O)=O)c5)n4)c3)ccn2)C(C)(C)C)cc1 [Compound 78, N-[2-[[4-[3-[2-[2-[[2-[2-[[(1S)-1-[(2S,4R)-4-hydroxy-2-[[4-(4-methylthiazol-5-yl)phenyl]methylcarbamoyl]pyrrolidine-1-carbonyl]-2,2-dimethyl-propyl]amino]-2-oxo-ethoxy]acetyl]amino]ethoxy]-4-pyridyl]phenyl]thiazol-2-yl]amino]-2-oxo-ethyl]-1-methylsulfonyl-pyrrole-3-carboxamide]
> 10 | < 50 | > 10 | C (‘C’ = Maximum degradation <50%) | Cc1ncsc1-c1ccc(CNC(=O)[C@@H]2C[C@@H](O)CN2C(=O)[C@@H](NC(=O)CCCC(=O)N2CCN(c3cc(-c4cccc(-c5csc(NC(=O)CNC(=O)c6ccn(S(C)(=O)=O)c6)n5)c4)ccn3)CC2)C(C)(C)C)cc1 [Compound 79, N-(2-((4-(3-(2-(4-(5-(((S)-1-((2S,4R)-4-hydroxy-2-((4-(4-methylthiazol-5-yl)benzyl)carbamoyl)pyrrolidin-1-yl)-3,3-dimethyl-1-oxobutan-2-yl)amino)-5-oxopentanoyl)piperazin-1-yl)pyridin-4-yl)phenyl)thiazol-2-yl)amino)-2-oxoethyl)-1-(methylsulfonyl)-1H-pyrrole-3-carboxamide]
> 10 | < 50 | > 10 | C (‘C’ = Maximum degradation <50%) | CS(=O)(=O)n1ccc(C(=O)NCC(=O)Nc2nc(-c3cccc(-c4ccnc(OCCNC(=O)C5CC5CNC(=O)COc5ccc6c(c5)C(=O)N(C5CCC(=O)NC5=O)C6=O)c4)c3)cs2)c1 (stereo not drawn) [Compound 80, N-[2-[[4-[3-[2-[2-[[2-[[[2-[2-(2,6-dioxo-3-piperidyl)-1,3-dioxoisoindolin-5-yl]oxyacetyl]amino]methyl]cyclopropanecarbonyl]amino]ethoxy]-4-pyridyl]phenyl]thiazol-2-yl]amino]-2-oxoethyl]-1-methylsulfonyl-pyrrole-3-carboxamide]
0.1 to 1 | 50 to 75 | > 10 | C (‘C’ = Maximum degradation <50%) | CS(=O)(=O)n1ccc(C(=O)NCC(=O)Nc2nc(-c3cccc(-c4ccnc(OCCNC(=O)CCOCCOCCNc5cccc6c5C(=O)N(C5CCC(=O)NC5=O)C6=O)c4)c3)cs2)c1 (stereo not drawn) [Compound 81, N-[2-[[4-[3-[2-[2-[3-[2-[2-[[2-(2,6-dioxo-3-piperidyl)-1,3-dioxoisoindolin-4-yl]amino]ethoxy]ethoxy]propanoylamino]ethoxy]-4-pyridyl]phenyl]thiazol-2-yl]amino]-2-oxo-ethyl]-1-methylsulfonyl-pyrrole-3-carboxamide]
